Source: patent US20090043129A1 (priority 2005, published 2009)
pEC50, pIC50, pKi: −log10 of the molar value. Read-outs that look alike come from different tables or passages of the source.

Legend:
[1] = biological target: T1, human recombinant CB1 receptor (Homo sapiens, UniProt P21554); type: binding; design: purchased Perkin-Elmer; host or cells: COS cells
[2] = biological target: T2, Fatty Acid Amide Hydrolase (FAAH) (Rattus norvegicus, UniProt P97612); test: biochemical
T2 sequence (P97612 1-579): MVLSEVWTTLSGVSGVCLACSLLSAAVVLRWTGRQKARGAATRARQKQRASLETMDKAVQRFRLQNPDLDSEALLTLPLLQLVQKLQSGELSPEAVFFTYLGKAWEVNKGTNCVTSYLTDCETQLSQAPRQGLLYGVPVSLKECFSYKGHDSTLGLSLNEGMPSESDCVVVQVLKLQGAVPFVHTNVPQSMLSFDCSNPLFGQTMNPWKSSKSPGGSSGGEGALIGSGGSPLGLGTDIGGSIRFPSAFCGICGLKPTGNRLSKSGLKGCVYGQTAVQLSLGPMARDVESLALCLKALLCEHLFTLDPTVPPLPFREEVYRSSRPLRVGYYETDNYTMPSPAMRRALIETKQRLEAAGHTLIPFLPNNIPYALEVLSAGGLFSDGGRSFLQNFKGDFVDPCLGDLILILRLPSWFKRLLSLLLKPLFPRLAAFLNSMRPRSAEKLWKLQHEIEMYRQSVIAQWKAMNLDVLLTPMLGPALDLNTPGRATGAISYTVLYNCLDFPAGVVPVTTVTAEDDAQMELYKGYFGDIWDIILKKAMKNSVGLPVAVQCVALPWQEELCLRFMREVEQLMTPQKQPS
Procedure: Assay for Fatty Acid Amide Hydrolase (FAAH)
The effect of compounds on the enzymatic hydrolysis of [^14C]anandamide (6 μM) was studied using membranes prepared from rat brain incubated with increasing concentrations of compounds in 50 mM Tris-HCl, pH 9, for 30 minutes at 37° C. (Di Marzo et al., 2002). [^14C]ethanolamine produced from [^14C]anandamide hydrolysis was measured counting the scintillation of the aqueous phase after extraction of the incubation mixture with 2 volumes of CHCl3/CH3OH (2:1 by volume). […]

[3] = biological target: T3, CB1 cannabinoid receptors (Mus musculus, UniProt P47746); test: Forskolin-induced cyclic AMP in N18TG2 neuroblastoma cells; type: cell-based; conditions: for functional behaviour at CB1 receptors: cAMP
T3 construct: N18TG2 mouse neuroblastoma cells, which constitutively and selectively express the CB 1 cannabinoid receptors; endogenous in cells; host or cells: N18TG2 mouse neuroblastoma cells
Procedure: (§1) After incubation, 800 μl of methanol were added, cells were extracted and cyclic AMP was determined with a cyclic AMP assay kit (Amersham, UK), in accordance with the supplier's recommendations.

[4] = biological target: T4, human recombinant CB2 receptor (Homo sapiens, UniProt P34972); test: [35S]GTP-γ-S binding, CHO cells over-expressing hCB2; type: biochemical; design: expressed in transfected cells; host or cells: CHO cells (stably over-expressing); conditions: for antagonism of CP55940-induced stimulation of GTP-γ-S binding (in words) / effect on GTP-γ-S-binding (in words): CHO hCB2; for functional behaviour at CB2 receptors: Test 1 and Test 2, CHO hCB2
From the text: Results were compared to the potent CB1 and CB2 receptor agonist CP55940, purchased from Cayman Chemicals, Ann Arbour, Mich., USA.

CB1 receptors = biological target: T5, CB1 receptors (Mus musculus, UniProt P47746); test: [35S]GTP-γ-S binding, mouse brain membranes; type: biochemical
T5 construct: using mouse brain membranes containing CB1 receptors; from tissue; host or cells: mouse brain membranes
Procedure: These assays were performed as previously described (Thomas et al., 2005), using mouse brain membranes containing CB1 receptors or CHO cells stably over-expressing the human recombinant CB2 receptor (10 μg/ml protein), 0.7 nM [^35S]GTP-γ-S and 320 μM GDP, and a final assay volume of 250 μl. Results were compared to the potent CB1 and CB2 receptor agonist CP55940, purchased from Cayman Chemicals, Ann Arbour, Mich., USA.

[5] = biological target: T4, human recombinant CB2 receptor; test: CB2 binding, [3H]CP55,940 displacement, membranes from transfected COS cells; design: purchased Perkin-Elmer; host or cells: COS cells; conditions: for Ki: values in nM; for pKi: recombinant human CB2, COS cell membranes
[6] = biological target: T1, human recombinant CB1 receptor; test: Forskolin-induced cAMP formation in CHO cells over-expressing hCB1; type: cell-based; design: expressed in transfected cells; host or cells: CHO cells
Procedure: as §1

[7] = tested on: Anandamide Membrane Transporter (AMT); test: Anandamide uptake by RBL-2H3 cells; type: cell-based; conditions: anandamide uptake, read-out: AMT IC50
Procedure: Assay for the Anandamide Membrane Transporter (AMT)
The effect of the compounds on the uptake of anandamide by the RBL-2H3 cells was studied as described (Di Marzo et al., 2002). Cells were incubated with [^14C]anandamide (4 μM) for 5 minutes at 37° C., in the presence or absence of varying concentrations of the inhibitors. Residual [^14C]anandamide in the incubation media after extraction with CHCl3/CH3OH (2:1 by volume) was used as a measure of the anandamide that was taken up by cells. Data are expressed as the concentration that produces 50% of inhibition of anandamide uptake (IC50) calculated with GraphPad.

[8] = biological target: T4, human recombinant CB2 receptor; test: Forskolin-induced cAMP formation in CHO cells over-expressing hCB2; type: cell-based; design: expressed in transfected cells; host or cells: CHO cells (stably over-expressing)
Procedure: as §1

CB1 = biological target: T6, CB1 (Rattus norvegicus, UniProt P20272); test: Preliminary selection with rat brain membranes; type: binding; conditions: rat brain and spleen membranes, read-out: CB1 (n.a. class, IC50 in preliminary selection)
T6 construct: from tissue; host or cells: rat brain membranes

CB2 = biological target: T7, CB2 (Rattus norvegicus, UniProt Q9QZN9); test: Preliminary selection with rat spleen membranes; type: binding; conditions: rat brain and spleen membranes, read-out: CB2 (n.a. class, IC50 in preliminary selection)
T7 construct: from tissue; host or cells: rat spleen membranes
T7 sequence (Q9QZN9 1-360): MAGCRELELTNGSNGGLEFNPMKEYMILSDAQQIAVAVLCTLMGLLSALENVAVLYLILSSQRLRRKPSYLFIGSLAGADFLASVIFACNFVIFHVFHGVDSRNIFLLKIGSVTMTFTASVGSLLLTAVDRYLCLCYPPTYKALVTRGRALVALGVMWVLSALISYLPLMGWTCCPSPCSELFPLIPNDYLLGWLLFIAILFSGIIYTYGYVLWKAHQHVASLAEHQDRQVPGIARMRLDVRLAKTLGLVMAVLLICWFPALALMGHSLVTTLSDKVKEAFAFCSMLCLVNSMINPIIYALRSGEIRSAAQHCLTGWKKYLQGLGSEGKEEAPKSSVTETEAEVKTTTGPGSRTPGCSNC

[9] = forskolin-induced cAMP formation, CHO hCB2
[10] = recombinant human CB1, COS cell membranes
[11] = rat brain membranes, [14C]anandamide 6 μM, read-out: FAAH IC50

T5 sequence (P47746 whole entry): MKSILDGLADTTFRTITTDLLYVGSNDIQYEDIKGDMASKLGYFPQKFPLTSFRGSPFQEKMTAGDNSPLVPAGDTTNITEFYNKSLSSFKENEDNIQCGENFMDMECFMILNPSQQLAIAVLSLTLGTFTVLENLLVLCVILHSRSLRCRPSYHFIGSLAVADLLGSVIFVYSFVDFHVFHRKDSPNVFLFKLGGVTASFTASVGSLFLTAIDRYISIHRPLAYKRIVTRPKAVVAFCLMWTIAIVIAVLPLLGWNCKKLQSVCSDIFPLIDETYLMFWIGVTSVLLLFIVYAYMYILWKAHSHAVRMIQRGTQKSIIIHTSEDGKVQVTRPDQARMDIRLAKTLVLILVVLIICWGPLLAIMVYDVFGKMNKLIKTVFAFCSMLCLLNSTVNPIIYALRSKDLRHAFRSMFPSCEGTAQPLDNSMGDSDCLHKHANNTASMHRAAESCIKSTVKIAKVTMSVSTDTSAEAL
T3 sequence (P47746 whole entry): as above
T1 sequence (P21554 whole entry): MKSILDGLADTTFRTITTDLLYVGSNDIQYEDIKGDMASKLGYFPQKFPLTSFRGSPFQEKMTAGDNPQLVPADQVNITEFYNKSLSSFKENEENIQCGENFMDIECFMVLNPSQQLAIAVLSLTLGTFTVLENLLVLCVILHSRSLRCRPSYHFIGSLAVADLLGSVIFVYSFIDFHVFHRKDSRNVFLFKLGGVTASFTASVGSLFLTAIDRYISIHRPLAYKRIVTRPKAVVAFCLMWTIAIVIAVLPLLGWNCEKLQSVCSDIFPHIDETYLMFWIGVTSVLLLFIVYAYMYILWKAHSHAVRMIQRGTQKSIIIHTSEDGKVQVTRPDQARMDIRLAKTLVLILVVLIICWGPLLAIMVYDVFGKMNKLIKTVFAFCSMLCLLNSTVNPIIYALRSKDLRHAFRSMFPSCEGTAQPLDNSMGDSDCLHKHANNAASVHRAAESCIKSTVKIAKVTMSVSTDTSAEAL
T6 sequence (P20272 whole entry): as the sequence (P47746 whole entry) above, with D95E counted along it
T4 sequence (P34972 whole entry): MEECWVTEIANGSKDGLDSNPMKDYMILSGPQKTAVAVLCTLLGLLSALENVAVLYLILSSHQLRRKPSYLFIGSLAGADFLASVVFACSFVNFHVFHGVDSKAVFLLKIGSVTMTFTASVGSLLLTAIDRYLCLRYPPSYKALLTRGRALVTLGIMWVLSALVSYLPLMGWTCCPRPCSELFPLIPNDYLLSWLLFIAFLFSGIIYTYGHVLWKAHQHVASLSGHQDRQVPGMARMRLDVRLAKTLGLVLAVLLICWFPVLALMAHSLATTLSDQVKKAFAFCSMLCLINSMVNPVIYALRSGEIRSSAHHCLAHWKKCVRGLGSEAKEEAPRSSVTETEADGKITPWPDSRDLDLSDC

## CCCCCc1cc(O)cc(OCCCCCCCCCCC(=O)NC2CC2)c1 [Compound 25, 11-(3-Hydroxy-5-pentyl-phenoxy)-undecanoic acid cyclopropylamide]
[1]
  pKi: 8.28
[2]
  pIC50: < 5.00
[3]
  pEC50: 7.89
[3]; N18TG2 cells
  functional behaviour at CB1 receptors: inverse agonist/antagonist
[4]
  antagonism of CP55940-induced stimulation of GTP-γ-S binding (in words): block the effect of CP55940
  effect on GTP-γ-S-binding (in words): no significant stimulation or inhibition
  functional behaviour at CB2 receptors: neutral (“silent”) antagonists
CB1 receptors; mouse brain membranes
  functional behaviour in GTP-γ-S-binding: agonist action
CB1 receptors; mouse brain membranes, read-out: IC50, stimulation of GTP-γ-S-binding
  pIC50: 6.82
[5]
  Ki: 13 nM
[6]
  pEC50: 5.80
[6]; 10 μM, forskolin-induced cAMP formation, CHO hCB1
  hCB1 % effect with 10 μM: 63%
[6]; Test 1, CHO hCB1, inhibit forskolin-induced cAMP formation
  functional behaviour at human recombinant CB1: partial agonists
[7]
  pIC50: 4.77
[8]
  pEC50: < 5.00
[8]; [9]
  hCB2 % effect with 10 μM: 26%
[8]; CHO hCB2
  effect on forskolin-induced cAMP formation (in words): no significant effect

## CCCCCCc1ccc(OCCCCCC(=O)NC2CC2)cc1O [Compound 40, 6-(3-Hydroxy-4-hexyl-phenoxy)-hexanoic acid cyclopropylamide]
[1]; [10]
  pKi: 6.74
[2]; rat brain membranes, read-out: FAAH (n.a. class)
  pIC50: < 5.00
[3]; N18TG2 cells
  functional behaviour at CB1 receptors: inverse agonist/antagonist
[3]; N18TG2 cells, forskolin 1 μM, read-out: half-maximum effect concentration, stimulation of forskolin-induced cAMP formation
  pEC50: 6.82
other
  melting point: 134.2 °C
[5]
  pKi: 6.27

## CCCCCc1cc(O)cc(OCCCCCCCCCCC(=O)NCCO)c1 [Compound 24, 11-(3-Hydroxy-5-pentyl-phenoxy)-undecanoic acid (2-hydroxy-ethyl)-amide]
[1]; [10]
  pKi: 6.10
[2]
  pIC50: < 5.00
other
  melting point: 55 to 56 °C
[5]
  pKi: 6.80
[7]
  pIC50: 4.60

## CCCCCCc1ccc(O)cc1OCCCCCCCCCCC(=O)NC1CC1 [Compound 52, 11-(2-Hexyl-5-hydroxy-phenoxy)-undecanoic acid cyclopropylamide]
[1]; values in nM
  Ki: 210 nM
[4]
  antagonism of CP55940-induced stimulation of GTP-γ-S binding (in words): block the effect of CP55940
  effect on GTP-γ-S-binding (in words): no significant stimulation or inhibition
  functional behaviour at CB2 receptors: neutral (“silent”) antagonists
CB1 receptors
  pIC50: 7.00
CB1 receptors; mouse brain membranes
  functional behaviour in GTP-γ-S-binding: agonist action
[5]
  Ki: 30 nM
[6]; read-out: hCB1 EC50
  pEC50: 5.62
[7]
  pIC50: 4.89
[8]; [9]
  hCB2 % effect with 10 μM: 5%
[8]; CHO hCB2
  effect on forskolin-induced cAMP formation (in words): no significant effect
[8]; forskolin-induced cAMP formation, CHO hCB2, read-out: hCB2 EC50
  pEC50: < 5.00

## O=C(CCCCCCCCCCOc1cccc(O)c1)Nc1ccc(O)cc1 [Compound 35, 11-(3-Hydroxy-phenoxy)-undecanoic acid (4-hydroxy-phenyl)-amide]
other
  melting point: 121.2 °C
CB1
  pIC50: < 5.00

## CCCCCCc1ccc(OCCCCCCCCCCCCCCCC(=O)NC2CC2)cc1O [Compound 46, 16-(3-Hydroxy-4-hexyl-phenoxy)-hexadecanoic acid cyclopropylamide]
CB2
  pIC50: < 5.00
other
  melting point: 114.3 °C
CB1
  pIC50: < 5.00

## CCCCCCc1ccc(O)cc1OCCCCCCCCCCC(=O)Nc1ccc(O)cc1 [Compound 53, 11-(2-Hexyl-5-hydroxy-phenoxy)-undecanoic acid (4-hydroxy-phenyl)-amide]
[1]
  pKi: 5.48
[2]; [11]
  pIC50: 4.74
other
  melting point: 108.7 °C
[5]
  pKi: 5.68
[7]
  pIC50: < 4.60

## CCCCCCc1ccc(OCCCCCCCCCCC(=O)Nc2ccc(O)cc2)cc1O [Compound 44, 11-(3-Hydroxy-4-hexyl-phenoxy)-undecanoic acid (4-hydroxy-phenyl)-amide]
[2]; [11]
  pIC50: 4.30
other
  melting point: 121.2 °C
CB1
  pIC50: < 5.00
[7]
  pIC50: < 4.60

## CCCCCCc1ccc(OCCCCCCCCCCCCCCCC(=O)NCCO)cc1O [Compound 45, 16-(3-Hydroxy-4-hexyl-phenoxy)-hexadecanoic acid (2-hydroxy-ethyl)-amide]
CB2
  pIC50: < 5.00
other
  melting point: 96.4 °C
CB1
  pIC50: < 5.00

## CCCCCCc1ccc(O)cc1OCCCCCCCCCCCCCCCC(=O)NCCO [Compound 54, 16-(2-Hexyl-5-hydroxy-phenoxy)-hexadecanoic acid (2-hydroxy-ethyl)-amide]
CB2
  pIC50: < 5.00
other
  melting point: 77.2 °C
CB1
  pIC50: < 5.00
